pIC50: −log10 of the molar value. Several values for one entry are separate records, joined by “and”; a condition that tells them apart may be missing. Equal values may be shown once. Activity calls are given as the source filed them. The rule behind the calls is not given here.
Biological target: Melanin-concentrating hormone receptor 1 (Homo sapiens) (UniProt Q99705)
Assay: MCHR1 antagonists, dose response, counter-screen for GPR7 antagonist project, cell-based, fluorescence, set 4 (AID 588568)
Conditions: MCHR1-expressing cells, fluorescence antagonist assay; for inhibition: at 20 µM (top of the series)

Compound | IC50 (run 1) | pIC50 (run 1) | also measured
CN(C)Cc1ccc(Oc2c(Cl)cnn(Cc3cccc4ccccc34)c2=O)cc1 | > 20 µM (inactive) |  | 
NCc1ccc(Oc2c(Cl)cnn(Cc3cccc4ccccc34)c2=O)cc1 | inactive |  | 
COc1ccc(Oc2c(Cl)cnn(Cc3ccc(C4CCCCC4)c4ccccc34)c2=O)cc1 | > 20 µM (inactive) |  | 
COc1ccc(Oc2c(Cl)cnn(-c3ccc(C)c(C)c3)c2=O)cc1 |  | 5.02 | pIC50 (run 2): 5.40
COc1ccc(Oc2c(-c3ccc(C)cc3)c(-c3ccc(C)cc3)nn(Cc3ccccc3C)c2=O)cc1 | > 20 µM (inactive) |  | 
COC(=O)c1ccc(Oc2c(Cl)cnn(Cc3cccc4ccccc34)c2=O)cc1 | > 20 µM (inactive) |  | 
COc1ccc(Oc2c(Cl)cnn(Cc3ccc4c(c3)OCO4)c2=O)cc1 |  | 5.12 | 
O=c1c(Oc2ccc3occc3c2)c(Cl)cnn1Cc1cccc2ccccc12 | > 20 µM (inactive) |  | 
COc1ccc(Oc2c(Cl)cnn(C(CCl)c3cccc4ccccc34)c2=O)cc1 (configuration not stated) | > 20 µM (inactive) |  | 
Cc1cccc(Cn2ncc(Cl)c(Oc3ccc(CO)cc3)c2=O)c1 | > 11.5 µM (inactive) |  | 
O=c1c(Oc2ccc(CO)cc2)c(Cl)cnn1Cc1ccc2ccccc2c1 |  | 5.65 | 
CCCCCCCn1ncc(Cl)c(Oc2ccc(OC)cc2)c1=O | inactive |  | 
CC(C)c1ccc(Oc2c(Cl)cnn(Cc3cccc4ccccc34)c2=O)cc1 |  | 5.09 | 
COc1ccc(Oc2c(Cl)c(-c3ccccc3)nn(Cc3ccccc3C)c2=O)cc1 |  | 5.06 | 
O=C(C1CCCN1Cc1ccc(Cl)c(Cl)c1)N1CCN(c2ccc([N+](=O)[O-])cc2)CC1 (configuration not stated) |  | 5.67 | 
COc1ccc(Oc2c(Cl)c(-c3ccc(C(F)(F)F)cc3)nn(Cc3ccccc3C)c2=O)cc1 | inactive |  | 
COc1cccc(Oc2c(Cl)cnn(Cc3cccc4ccccc34)c2=O)c1 |  | 5.05 | 
COc1ccc(Oc2c(Cl)cnn(C(COC(C)=O)c3cccc4ccccc34)c2=O)cc1 (configuration not stated) | > 20 µM (inactive) |  | 
COc1ccc(Oc2c(Cl)c(-c3ccsc3)nn(Cc3ccccc3C)c2=O)cc1 |  | 5.09 | 
COc1ccc(Oc2c(C#N)cnn(Cc3ccccc3C)c2=O)cc1 | > 20 µM (inactive) |  | 
COc1ccc(Oc2c(Cl)cnn(Cc3cccc(C(F)(F)F)c3)c2=O)cc1 |  | 5.33 | 
COc1ccc(Oc2c(C#N)cnn(-c3ccc(Br)cc3)c2=O)cc1 | inactive |  | 
COc1ccc(Oc2c(C)cnn(Cc3cccc4ccccc34)c2=O)cc1 |  | 5.27 | 
COc1ccc(Oc2c(Cl)c(OC)nn(-c3cccc(C)c3)c2=O)cc1 |  | 5.07 | 
Cc1cc(C)cc(Cn2ncc(Cl)c(Oc3ccc(CO)cc3)c2=O)c1 |  | 5.52 | 

Compound | IC50 (run 1) | pIC50 (run 1) | also measured
COc1ccc(Oc2c(Cl)cnn(Cc3ccc(C)c(C)c3)c2=O)cc1 |  | 5.29 | 
COCn1ncc(Cl)c(Oc2ccc(OC)cc2)c1=O | > 20 µM (inactive) |  | 
O=c1c(Oc2ccc(OC(F)(F)F)cc2)c(Cl)cnn1C1c2ccccc2-c2ccccc21 | > 20 µM (inactive) |  | 
COc1ccc(Oc2c(-c3ccccc3C)c(-c3ccccc3C)nn(Cc3ccccc3C)c2=O)cc1 | inactive |  | 
O=Cc1ccc(Oc2c(Cl)cnn(Cc3cccc4ccccc34)c2=O)cc1 |  | 5.13 | 
COc1ccc(Oc2c(Cl)cnn(Cc3ccc(C)c4ccccc34)c2=O)cc1 | inactive |  | 
COc1ccc(Oc2c(Cl)cnn(C(C)c3cccc4ccccc34)c2=O)cc1 (configuration not stated) |  | 5.06 | 
Cc1ccc(-n2ncc(Cl)c(Oc3ccc(O)cc3)c2=O)cc1 | > 20 µM (inactive) |  | 
Cc1ccccc1Cn1ncc(Oc2ccc(CO)cc2)c(Cl)c1=O |  | 5.18 | 
COc1ccc(Oc2c(Cl)cnn(Cc3ccc(OC(C)C)c(C#N)c3)c2=O)cc1 |  | 5.26 | 
COc1ccc(Oc2cnn(Cc3cccc4ccccc34)c(=O)c2Br)cc1 | > 20 µM (inactive) |  | 
Cc1cc(C)cc(-n2ncc(Cl)c(Oc3ccc(CO)cc3)c2=O)c1 |  | 5.65 | 
COc1ccc(Oc2c(Cl)cnn(Cc3ccc(Cl)c(C)c3)c2=O)cc1 | inactive |  | 
O=C(c1cnn(-c2ccc(Cl)cc2)c1C(F)(F)F)N1CCN(c2ccc([N+](=O)[O-])cc2)CC1 |  | 5.79 | 
COc1ccc(Oc2c(Cl)c(C)nn(Cc3ccccc3C)c2=O)cc1 |  | 5.41 | 
CCOc1ccc(Oc2c(Cl)cnn(-c3cc(C)cc(C)c3)c2=O)cc1 |  | 5.62 | 
CCOc1ccc(Oc2c(NC(=O)OC(C)(C)C)cnn(Cc3cccc4ccccc34)c2=O)cc1 | > 20 µM (inactive) |  | 
COc1ccc(Oc2c(Cl)cnn(-c3ccc(-c4ccccc4)cc3)c2=O)cc1 |  | 5.14 and 5.33 | 
COc1ccc(Oc2c(Cl)cnn(C3=Nc4ccccc4Oc4ccccc43)c2=O)cc1 |  | 5.57 | 
CCOc1ccc(Oc2ccnn(Cc3cccc4ccccc34)c2=O)cc1 |  | 5.34 | 
COc1ccc(Oc2c(Cl)cnn(Cc3ccc(C(F)(F)F)cc3)c2=O)cc1 |  | 5.75 | 
COc1ccc(Oc2c(Cl)cnn(Cc3c(C)cc(C)cc3C)c2=O)cc1 |  | 5.12 | 
COc1ccc(Oc2c(Cl)cnn(Cc3ccc(F)c4ccccc34)c2=O)cc1 |  | 5.60 | 
CCOc1ccc(Oc2c(N3CCCCC3)cnn(Cc3cccc4ccccc34)c2=O)cc1 |  |  | inhibition (run 1): inactive
COc1ccc(Oc2c(Cl)cnn(Cc3ccc(Br)c4ccccc34)c2=O)cc1 | > 20 µM (inactive) |  | 

Compound | IC50 (run 1) | pIC50 (run 1) | also measured
COc1ccc(Oc2c(Cl)cnn(C3=Nc4cc(Cl)ccc4Oc4ccccc43)c2=O)cc1 |  | 5.95 | 
COc1ccc(Oc2c(Cl)cnn(Cc3c(OC)ccc4ccccc34)c2=O)cc1 |  | 5.21 | 
COc1ccc(Cn2ncc(Cl)c(Oc3ccc(OC)cc3)c2=O)cc1 | inactive |  | 
CCCC(=O)OCC(c1cccc2ccccc12)n1ncc(Cl)c(Oc2ccc(OC)cc2)c1=O (configuration not stated) | > 20 µM (inactive) |  | 
CCOc1ccc(Oc2c(N)cnn(Cc3cccc4ccccc34)c2=O)cc1 |  | 5.30 | 
COc1ccc(Oc2c(Cl)cnn(CC3CCC3)c2=O)cc1 |  |  | inhibition (run 1): inactive
COc1ccc(Oc2c(-c3ccsc3)c(-c3ccsc3)nn(Cc3ccccc3C)c2=O)cc1 | > 20 µM (inactive) |  | 
COc1ccc(Oc2c(Cl)cnn(-c3ccc(-c4ccc(C)cc4)cc3)c2=O)cc1 | > 20 µM (inactive) |  | 
Cc1cc(C)cc(Cn2[nH]cc(Oc3ccc(CO)cc3)c(=O)c2=O)c1 |  | 5.63 | 
COc1ccc(Oc2c(Cl)cnn(-c3ccc(C)cc3C)c2=O)cc1 |  | 5.05 | 
COc1ccc(Oc2c(Cl)cnn(-c3cccc(Br)c3)c2=O)cc1 |  | 5.53 | 
COc1ccc(Oc2c(Cl)cnn(-c3ccc(F)cc3)c2=O)cc1 |  | 5.11 | 
COc1ccc(Oc2c(Cl)cnn(CC3CCCCC3)c2=O)cc1 | inactive |  | 
COc1ccc(Oc2c(Cl)cnn(C3=Nc4ccccc4Sc4ccccc43)c2=O)cc1 | > 20 µM (inactive) |  | 
COc1ccc(Oc2c(Cl)cnn(-c3nc4ccccc4c4ccccc34)c2=O)cc1 | > 20 µM (inactive) |  | 
COc1ccc(Oc2c(Cl)cnn(Cc3ccc(Cl)cc3Cl)c2=O)cc1 |  | 5.84 | 
COc1ccc(Oc2c(Cl)cnn(-c3ccc(C4=CCCCC4)cc3)c2=O)cc1 |  | 5.29 | 
COc1ccc(Oc2c(Cl)cnn(C(c3ccccc3)c3ccccc3C)c2=O)cc1 (configuration not stated) | inactive |  | 
COc1ccc(Oc2c(Br)nn(-c3cccc(C)c3)c(=O)c2Oc2ccc(OC)cc2)cc1 |  | 5.78 | 
Cc1cc(C)cc(-n2nc(C#N)c(=O)[nH]c2=O)c1 | > 20 µM (inactive) |  | 
COc1ccc(Oc2c(Cl)cnn(CC(=O)c3ccc(C)cc3C)c2=O)cc1 |  | 5.58 | 
COc1ccc(Oc2c(Cl)c(-c3ccc(C)cc3)nn(Cc3ccccc3C)c2=O)cc1 |  | 5.19 | 
COc1ccc(Oc2c(Cl)cnn(C(CO)c3cccc4ccccc34)c2=O)cc1 (configuration not stated) |  | 5.04 | 
Cc1cc(C)cc(-n2ncc(Cl)c(Oc3ccc(-c4ccccc4)cc3)c2=O)c1 |  | 5.10 | 
CC(=O)OCc1ccc(Oc2c(Cl)cnn(Cc3cccc4ccccc34)c2=O)cc1 |  | 5.22 | 

Compound | IC50 (run 1) | pIC50 (run 1) | also measured
COc1ccc(Oc2c(Cl)cnn(-c3ccc(C(F)(F)F)cc3)c2=O)cc1 |  | 5.02 | pIC50 (run 2): 5.01
COc1ccc(Oc2c(Cl)cnn(Cc3cccc(C)c3)c2=O)cc1 |  | 5.33 | 
COc1ccc(Oc2c(C)c(C)nn(Cc3ccccc3C)c2=O)cc1 |  | 5.14 | 
CCc1ccc(Oc2c(Cl)cnn(C3c4ccccc4-c4ccccc43)c2=O)cc1 | > 20 µM (inactive) |  | 
COc1ccc(Oc2c(Cl)cnn(Cc3cc(Cl)ccc3Cl)c2=O)cc1 |  | 5.37 | 
COc1ccc(Oc2c(Cl)cnn(Cc3ccc(F)cc3Cl)c2=O)cc1 |  | 5.38 | 
COc1ccc(Oc2c(Cl)cnn(Cc3c(Cl)cccc3Cl)c2=O)cc1 |  | 5.12 | 
COc1ccc(Oc2c(Cl)cnn(C(c3ccccc3)c3c(C)noc3C)c2=O)cc1 (configuration not stated) | > 20 µM (inactive) |  | 
O=c1c(Oc2ccc(Oc3ccccc3)cc2)c(Cl)cnn1Cc1cccc2ccccc12 | > 20 µM (inactive) |  | 
Cc1ccc(CN2CCCCC2C(=O)N2CCN(c3ccc([N+](=O)[O-])cc3)CC2)cc1C (configuration not stated) |  | 5.48 | 
COc1ccc(Oc2c(Cl)cnn(-c3ccc(OC(C)C)cc3)c2=O)cc1 |  | 5.19 | 
CC(C)Oc1ccc(Oc2c(Cl)cnn(Cc3cccc4ccccc34)c2=O)cc1 | inactive |  | 
COc1ccc(Oc2c(Cl)c(Br)nn(Cc3ccccc3C)c2=O)cc1 |  | 5.75 | 
C=Cc1ccc(Cn2ncc(Cl)c(Oc3ccc(OC)cc3)c2=O)cc1 |  | 5.04 | 
COc1ccc(Oc2c(/C=N\O)cnn(Cc3cccc4ccccc34)c2=O)cc1 | inactive |  | 
CCCCCc1ccc(-n2ncc(Cl)c(Oc3ccc(OC)cc3)c2=O)cc1 |  | 5.01 | 
Cc1cccc(Cn2ncc(Oc3ccc(CO)cc3)c(Cl)c2=O)c1 |  | 5.29 | 
CCOC(=O)C(c1ccccc1Cl)n1ncc(Cl)c(Oc2ccc(OC)cc2)c1=O (configuration not stated) |  | 5.49 | 
COc1ccc(Oc2c(Cl)cnn(Cc3ccc(-c4ccccc4)cc3)c2=O)cc1 | > 20 µM (inactive) |  | 
COc1ccc(Oc2c(Cl)cnn(C(C(=O)OC(C)C)c3ccccc3Cl)c2=O)cc1 (configuration not stated) | > 11.5 µM (inactive) |  | 
COc1ccccc1CNC(=O)c1cnn(-c2ccc(Cl)cc2)c1C(F)(F)F |  | 5.14 | 
COc1ccc(Oc2c(Cl)cnn(CCc3cccc4ccccc34)c2=O)cc1 | inactive |  | 
COc1ccc(Oc2c(Cl)cnn(Cc3ccc(C(C)C)cc3)c2=O)cc1 | > 20 µM (inactive) |  | 
COc1ccc(Oc2c(Cl)cnn(CC3CCCC3)c2=O)cc1 | inactive |  | 
COc1ccc(Oc2c(Cl)cnn(Cc3ccc(Cl)cc3)c2=O)cc1 |  | 5.49 | 

Reference: PubChem BioAssay AID588568 (The Scripps Research Institute Molecular Screening Center, 2011)
